Data reported in patent US20240199628A1, “TETRAPYRROLE-BASED COMPOUNDS AND THEIR FOMULATIONS FOR ANTI-MICROBIAL THERAPY” (biolitec Unternehmensbeteiligungs II AG, priority 2021, published 2024).

Columns and labels:
[1] = system: 25710_2.43-IMC (origin India, Clade C); assay: A3R5 assay, virus inhibition, HIV-1 IMC 25710_2.43; assay type: cell-based; conditions: Human immunodeficiency virus 1, 96 h, read-out: inhibition compared to the virus control
Method: (§1) Antiviral testing was performed using temoporfin. The organisms studied were replication competent HIV-1 infectious molecular env clones (IMC) in the A3R5 assay. Following IMC were used: (I) 398-71-F6_20-IMC (origin Tansania, Clade A), (II) X2278_C2_B6-IMC (origin Spain, Clade D), (III) 25710_2.43-IMC (origin India, Clade C) and (IV) CNE55-IMC (origin China, Clade […]). Virus specific original env sequences were cloned into the HIV-1 NL4-3 backbone (gene bank ID: M19921) sequence containing a Renilla reniformis luciferase reporter gene to measure the infectivity rate.
(§2) A3R5 cells are grown in RPMI1640 supplemented with 10% fetal calf serum, 25 mM HEPES, 50 μg/ml gentamycine and 1 mg/ml geneticin. […] Within the assay the A3R5 cells were added (plus 5 μg/ml DEAE-Dextran) to the temoporfin samples in the presence of the respective amount of IMC at 50,000 RLU equivalents. After 96 hrs incubation the read out of the A3R5 assays occurred. The decrease of the luminescence compared to the virus control was measured using Victor X3 luminometer (Perkin Elmer) and allowed the detection of a possible inhibitory effect of temoporfin against HIV-1 IMCs.

[2] = system: 398-71-F6_20-IMC (origin Tansania, Clade A); assay: A3R5 assay, virus inhibition, HIV-1 IMC 398-71-F6_20; assay type: cell-based; conditions: Human immunodeficiency virus 1, 96 h, read-out: anti-HIV-1 effect (inhibition)
Method: as §1, §2

[3] = system: replication competent HIV-1 infectious molecular env clones (IMC); assay: A3R5 assay, all tested HIV-1 IMCs; assay type: cell-based; conditions: two independent runs, concentrations of 2.5 μM and 1.25 μM
Method: as §1, §2

[4] = system: CNE55-IMC (origin China, Clade CRF01_AR); assay: A3R5 assay, virus inhibition, HIV-1 IMC CNE55; assay type: cell-based; conditions: Human immunodeficiency virus 1, 96 h, read-out: inhibition compared to the virus control
Method: as §1, §2

[5] = system: X2278_C2_B6-IMC (origin Spain, Clade D); assay: A3R5 assay, virus inhibition, HIV-1 IMC X2278_C2_B6; assay type: cell-based; conditions: 96 h, read-out: anti-HIV-1 effect (inhibition)
Method: as §1, §2

[6] = system: Staphylococcus aureus; assay: Antibacterial testing in submerged cultures (CFU/ml); assay type: cell-based; conditions: S. aureus
Description: The organisms studied were Staphylococcus aureus DSM 1104 and DSM 11729, gram positive, Klebsiella pneumoniae, gram negative, Enterobacter aerogenes, gram negative, and Acinetobacter baumannii, gram negative. For antibacterial testing in submerged cultures cultured cells are suspended in sterile phosphate-buffered saline (PBS), sterile PBS supplemented with 10% sterile horse serum, or sterile PBS supplemented with 10% sheep blood. The bacterial suspensions are placed into sterile black well plates with clear bottoms. Concentrations of photosensitizer used in the study were as follows: 1 μM, 10 μM, 100 μM, and 1 mM. After an incubation time period of 30 minutes, the samples are exposed to white light, with a power density and irradiation time resulting in an energy fluency of about 100 J/cm^2. Control samples contained no photosensitizer and are not exposed to light. The control samples for dark toxicity are only exposed to photosensitizer without any illumination. After irradiation, the samples are removed and suspended again in the culture media. The numbers of colony-forming units (CFU/ml) are enumerated after an adequate incubation time period.

[7] = system: Staphylococcus aureus biofilms; assay: Antibacterial testing of bacterial biofilms (CFU/ml); assay type: cell-based, Staphylococcus aureus DSM1104; conditions: S. aureus biofilms (FIG. 1F)
Method: For antibacterial testing of bacterial biofilms the 96 pins of a transferable solid phase plates (TSP; Nunc-Immuno™ TSP with MaxiSorp™ surface) were used to generate the biofilms. The TSP plates were transferred in 96-well plates with 200 μl fresh overnight culture of Staphylococcus aureus DSM1104 cells and incubated at 35° C. about 20 hours by gentle shaking. Within this time the bacterial cells established biofilms on the pins. After removing of unattached cells by gentle washing with 250 μl of 0.9% NaCl solution the TSP plates with the biofilms on the pins were incubated with 250 μl of the photosensitizer solution or the solvent of the photosensitizer solution for control samples for 30 minutes in the dark. After incubation and another washing the pins were irradiated by white light, with a power density and irradiation time resulting in an energy fluence of about 100 J/cm^2. For the quantification of remaining attached cells, the pins were transferred into 250 μl of 0.9% NaCl solution by gentle sonication. The samples are removed, suspended in the culture media, and the numbers of colony-forming units (CFU/ml) are enumerated after an adequate incubation time period.

Molecule | inhibition at 2.5 µM [1] | inhibition at 2.5 µM [2] | anti-HIV activity [3] | inhibition at 2.5 µM [4] | inhibition at 2.5 µM [5] | antibacterial activity ([6]; in the absence of light (FIG. 1A)) | antibacterial activity ([6]; in the presence of complex media (serum) (FIG. 1A, middle)) | antibacterial activity ([6]; in the presence of whole blood (FIG. 1A, right)) | antibacterial activity against biofilms [7]
Oc1cccc(-c2c3nc(c(-c4cccc(O)c4)c4ccc([nH]4)c(-c4cccc(O)c4)c4nc(c(-c5cccc(O)c5)c5ccc2[nH]5)CC4)C=C3)c1 [Temoporfin, 5,10,15,20-tetrakis(3-hydroxyphenyl)chlorin] | 42% | 35% | anti-HIV activity was observed | 22% | 38% |  |  |  | 
[5,10,15,20-tetrakis(3-hydroxyphenyl)porphyrinato]zinc(II) |  |  |  |  |  | high antibacterial activity | activity | activity | active
